According to paper PMC8484168 (Cancer Chemotherapy and Pharmacology, 2021):
Where two headings read alike, the source gives them in different places.

Experiments:
[1] = Plasma PK of rosuvastatin and oral contraceptives with and without rucaparib (phase 1 DDI study, noncompartmental analysis); type: in vivo, human; conditions: for detected in human plasma up to (postdose): 30 µg dose, LC–MS/MS; for AUC(0-inf) / AUC(0-t) / Cmax / half-life / Vd/F / Tmax: human; for AUC(0-inf) / AUC(0-t) / Cmax / half-life / Vd/F: po; for Tmax: read-out: tmax, Median (range); for change of median tmax with rucaparib: with vs without rucaparib
Description: This was a 2-part, phase 1, open-label, 2-arm DDI study in patients with advanced solid tumors. In Part 1 of the study, patients were screened for eligibility from day − 28 to − 2 and visited the study site from day − 1 to 23 (Fig. 1). […] To check steady-state plasma concentrations for rucaparib, a blood sample was collected prior to the dosing of rucaparib on days 5, 9, 11, 15, and 19–23.
Other PK parameters, calculated for the probe drugs, included half-life (t1/2), tmax, apparent total clearance of drug after oral administration (CL/F), and apparent volume of distribution during terminal phase (VZ/F). The PK parameter calculated for rucaparib at steady state was trough plasma concentration (Cmin). PK parameters were calculated by noncompartmental analysis using Phoenix WinNonlin, version 8.1 (Certara, Princeton, NJ).
Details are provided in Online Resource 1.
The LC consisted of a Gemini NX C18 column (2 x 50 mm, 3 μm, Phenomenex, Torrance, CA) and was eluted with a gradient consisting of 0.1% acetic acid in water as mobile phase A and with 100% acetonitrile as mobile phase B at an initial flow rate of 0.5 mL/min at room temperature. The MS/MS consisted of an AB SCIEX API5000 system and was operated with Analyst version 1.6.2 in TurboIonSpray and positive ionization mode. […] The concentration range for quantitation was 0.1–100 ng/mL.
Separation between potential metabolites and interfering endogenous compounds was achieved by ultra-high performance liquid chromatography with a CSH C18 column at 40°C and gradient elution using 0.1% formic acid in water as mobile phase A and acetonitrile as mobile phase B, operating at an initial flow rate of 0.800 mL/min. A triple quadrupole mass spectrometer (Triple Quad 6500) equipped with a turbo ion spray source was used for detection in positive ion mode.

[2] = DDI analysis: geometric mean ratio of probe drug PK with versus without rucaparib; type: in vivo, human; conditions: Arm B; steady-state rucaparib
Description: The DDI analysis population included patients who completed the DDI assessment per protocol and had sufficient PK data to calculate Cmax and AUC of the probe drug with and without rucaparib. […] With the assumption that intrapatient PK variability would be 35% for the probe drugs, a total enrollment of 32 patients was planned for this study: 16 for Arm A and 16 for Arm B. […] The primary PK parameters were natural log-transformed before assessment with a paired t test.

[3] = plasma, 600 mg, with rucaparib 600 mg BID (day 19), single oral dose, plasma, read-out: AUC0–inf, GM (%CV)
[4] = plasma, 600 mg, with rucaparib 600 mg BID (day 19), single oral dose, plasma, read-out: AUC0–inf, Mean (SD)
[5] = plasma, 600 mg, with rucaparib 600 mg BID (day 19), single oral dose, plasma, read-out: AUC0–inf, Median (range)
[6] = plasma, 600 mg, with rucaparib 600 mg BID (day 19), single oral dose, plasma, read-out: AUC0–last, GM (%CV)
[7] = plasma, 600 mg, with rucaparib 600 mg BID (day 19), single oral dose, plasma, read-out: AUC0–last, Mean (SD)
[8] = plasma, 600 mg, with rucaparib 600 mg BID (day 19), single oral dose, plasma, read-out: AUC0–last, Median (range)
[9] = plasma, 600 mg, with rucaparib 600 mg BID (day 19), single oral dose, plasma, read-out: Cmax, GM (%CV)
[10] = plasma, 600 mg, with rucaparib 600 mg BID (day 19), single oral dose, plasma, read-out: Cmax, Median (range)
[11] = plasma, 600 mg, with rucaparib 600 mg BID (day 19), single oral dose, plasma, read-out: t1/2, GM (%CV) (converted)
[12] = plasma, 600 mg, with rucaparib 600 mg BID (day 19), single oral dose, plasma, read-out: t1/2, Mean (SD) (converted)
[13] = plasma, 600 mg, with rucaparib 600 mg BID (day 19), single oral dose, plasma, read-out: t1/2, Median (range) (converted)
[14] = plasma, 600 mg, with rucaparib 600 mg BID (day 19), single oral dose, read-out: VZ/F, GM (%CV)
[15] = plasma, 600 mg, with rucaparib 600 mg BID (day 19), single oral dose, read-out: VZ/F, Mean (SD)
[16] = plasma, 600 mg, with rucaparib 600 mg BID (day 19), single oral dose, read-out: VZ/F, Median (range)
[17] = plasma, without rucaparib (day 1), single oral dose, plasma, PK analysis population, read-out: Cmax, Mean (SD)
[18] = plasma, without rucaparib (day 1), single oral dose, plasma, read-out: AUC0–inf, GM (%CV)
[19] = plasma, without rucaparib (day 1), single oral dose, plasma, read-out: AUC0–inf, Mean (SD)
[20] = plasma, without rucaparib (day 1), single oral dose, plasma, read-out: AUC0–inf, Median (range)
[21] = plasma, without rucaparib (day 1), single oral dose, plasma, read-out: AUC0–last, Mean (SD)
[22] = plasma, without rucaparib (day 1), single oral dose, plasma, read-out: AUC0–last, Median (range)
[23] = plasma, without rucaparib (day 1), single oral dose, plasma, read-out: Cmax, GM (%CV)
[24] = plasma, without rucaparib (day 1), single oral dose, plasma, read-out: Cmax, Median (range)
[25] = plasma, without rucaparib (day 1), single oral dose, plasma, read-out: t1/2, GM (%CV) (converted)
[26] = plasma, without rucaparib (day 1), single oral dose, plasma, read-out: t1/2, Mean (SD) (converted)
[27] = plasma, without rucaparib (day 1), single oral dose, plasma, read-out: t1/2, Median (range) (converted)
[28] = plasma, without rucaparib (day 1), single oral dose, read-out: VZ/F, GM (%CV)
[29] = plasma, without rucaparib (day 1), single oral dose, read-out: VZ/F, Mean (SD)
[30] = plasma, without rucaparib (day 1), single oral dose, read-out: VZ/F, Median (range)
[31] = without rucaparib (day 1), single oral dose, plasma
[32] = with rucaparib 600 mg BID (day 19), single oral dose
[33] = without rucaparib (day 1), single oral dose

AUC(0-inf) [1, 3]	AUC(0-inf) [1, 4]	AUC(0-inf) [1, 5]	AUC(0-t) [1, 6]	AUC(0-t) [1, 7]	AUC(0-t) [1, 8]	Cmax [1, 9]	Cmax [1, 10]	half-life [1, 11]	half-life [1, 12]	half-life [1, 13]	Vd/F [1, 14]	Vd/F [1, 15]	Vd/F [1, 16]	Cmax [1, 17]	AUC(0-inf) [1, 18]	AUC(0-inf) [1, 19]	AUC(0-inf) [1, 20]	AUC(0-t) [1, 21]	AUC(0-t) [1, 22]	Compound	further results
1.41 ng·h/mL	1.49 ng·h/mL	1.37 ng·h/mL	1.15 ng·h/mL	1.24 ng·h/mL	1.18 ng·h/mL	0.0784 ng/mL	0.0756 ng/mL	24.8 h	30 h	27.1 h	653 L	684 L	620 L	0.0792 ng/mL	0.962 ng·h/mL	0.994 ng·h/mL	1 ng·h/mL	0.804 ng·h/mL	0.775 ng·h/mL	C#C[C@]1(O)CC[C@H]2[C@@H]3CCc4cc(O)ccc4[C@H]3CC[C@@]21C [ethinylestradiol]	detected in human plasma up to (postdose) ([1]; with rucaparib): ≤ 72 h; detected in human plasma up to (postdose) ([1]; without rucaparib): up to 48 h; Cmax [1, 23]: 0.0732 ng/mL; Cmax [1, 24]: 0.0734 ng/mL; half-life [1, 25]: 15.9 h; half-life [1, 26]: 17 h; half-life [1, 27]: 18.1 h; Vd/F [1, 28]: 772 L; Vd/F [1, 29]: 792 L; Vd/F [1, 30]: 772 L; Tmax [1, 31]: 1 h; Cmax, Mean (SD) ([1]; with rucaparib 600 mg BID (day 19), single oral dose, plasma, PK analysis population): 0.0893 (0.0443) ng/mL; change of median tmax with rucaparib [1]: 0.5 h; AUC increase with rucaparib [2]: approximately 1.4 fold; Cmax increase with rucaparib [2]: < 1.25 fold
102 ng·h/mL	109 ng·h/mL	87.3 ng·h/mL	77.5 ng·h/mL	86 ng·h/mL	80.4 ng·h/mL	3.43 ng/mL	3.48 ng/mL	46.6 h	50 h	43.6 h	77.6 L	82.8 L	85.6 L	3.32 ng/mL	64 ng·h/mL	72.7 ng·h/mL	55.4 ng·h/mL	59.7 ng·h/mL	45.3 ng·h/mL	C#C[C@]1(O)CC[C@H]2[C@@H]3CCC4=CC(=O)CC[C@@H]4[C@H]3CC[C@@]21CC [levonorgestrel]	Cmax ([1]; plasma, 600 mg, with rucaparib 600 mg BID (day 19), single oral dose, plasma, PK analysis population, read-out: Cmax, Mean (SD)): 3.77 ng/mL; AUC(0-t) ([1]; plasma, without rucaparib (day 1), single oral dose, plasma, read-out: AUC0–last, GM (%CV)): 52.9 ng·h/mL; Cmax [1, 23]: 3.17 ng/mL; Cmax [1, 24]: 3.29 ng/mL; half-life [1, 25]: 38.5 h; half-life [1, 26]: 41.1 h; half-life [1, 27]: 37.1 h; Vd/F [1, 28]: 103 L; Vd/F [1, 29]: 113 L; Vd/F [1, 30]: 114 L; Tmax ([1]; with rucaparib 600 mg BID (day 19), single oral dose, plasma): 1.5 h; Tmax [1, 31]: 1.51 h; CL/F, Mean (SD) [1, 32]: 1.57 (0.531) L/h; CL/F, Median (range) [1, 32]: 1.72 (0.701–2.39) L/h; change of median tmax with rucaparib [1]: remained the same; CL/F, Mean (SD) [1, 33]: 2.57 (1.01) L/h; CL/F, Median (range) [1, 33]: 2.71 (0.891–3.84) L/h; AUC increase with rucaparib [2]: ~1.6 fold; Cmax increase with rucaparib [2]: < 1.25 fold
